This note sets out measurements from patent publication US20190375708A1 (VenatoRx Pharmaceuticals, Inc., priority 2018, published 2019).

Molecules are shown by their SMILES.

Data set [1] has as its system HBV replication in HepAD38 cells. In words: Anti-HBV replication assay in HepAD38 cells (QPCR of extracellular HBV DNA). Format: cell-based, HBV (genotype D, serotype ayw). The conditions noted are these: Hepatitis B virus, 168 h, 7 days incubation, extracellular HBV DNA by QPCR, read-out: Anti-HBV EC50. In outline: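 Read-out is QPCR of HBV DNA released into culture supernatant, converted to percent of vehicle control and fitted to give EC50. Cells were HepAD38 induced by tetracycline removal and dosed […] for 7 days.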

The nature of data set [2]: In vitro cytotoxicity assay (MTT cell viability) in HepG2 cells. Format: cell-based, human. The following applies: human. The method, boiled down:
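Parental HepG2 cells in EMEM + 10% FBS were exposed to compounds (8 half-log dilutions, 30 μM to 1.0 nM) for 7 days at 37 °C, 5% CO2. MTT was then added for 3-4 h, formazan dissolved in DMSO and absorbance read at 492 nm; CC50 came from 4-parameter fits against vehicle controls.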

Take `Cc1cc(NC(=O)c2c(C)c(C(=O)C(=O)NC3(CO)CCC3)n3c2CCCC3)ccc1F` [Example 442, N-(4-fluoro-3-methylphenyl)-3-(2-((1-(hydroxymethyl)cyclobutyl)amino)-2-oxoacetyl)-2-methyl-5,6,7,8-tetrahydroindolizine-1-carboxamide]: the EC50 in data set [1] is less than 0.05 µM. The molecule further had a CC50 at 7 days in data set [2] of 5 to 30 µM.
For `Cc1c(C(=O)Nc2ccc(F)c(Cl)c2)c(Cl)c(C(=O)C(=O)NC(C)(C)C)n1C` [Example 370, 5-(2-(tert-butylamino)-2-oxoacetyl)-4-chloro-N-(3-chloro-4-fluorophenyl)-1,2-dimethyl-1H-pyrrole-3-carboxamide] the same measures were less than 0.05 µM and more than 30 µM.
For `Cc1csc(C2(NC(=O)C(=O)c3c(C)c(C(=O)Nc4ccc(F)c(C)c4)c(C)n3C)CCCC2)n1` [Example 635, N-(4-fluoro-3-methylphenyl)-1,2,4-trimetthyl-5-(2-((1-(4-methylthiazol-2-yl)cyclopentyl)amino)-2-oxoacetyl)-1H-pyrrole-3-carboxamide] the same measures were less than 0.05 µM and more than 30 µM.
In the same order, the values of `CC(C)(CO)NC(=O)C(=O)c1cc(C(=O)Nc2cc(F)c(F)c(F)c2)c2n1CCCC2` [Example 424, 3-(2-((1-hydroxy-2-methylpropan-2-yl)amino)-2-oxoacetyl)-N-(3,4,5-trifluorophenyl)-5,6,7,8-tetrahydroindolizine-1-carboxamide] are 0.05 to 0.499 µM and more than 30 µM.
For `COC(=O)[C@H](NC(=O)C(=O)c1c(C)c(C(=O)Nc2ccc(F)c(C)c2)c(C)n1C)[C@H](C)O` [Example 28, methyl (2-(4-((4-fluoro-3-methylphenyl)carbamoyl)-1,3,5-trimethyl-1H-pyrrol-2-yl)-2-oxoacetyl)-D-threoninate], the EC50 in data set [1] is less than 0.05 µM. In addition, in data set [2], the CC50 at 7 days was more than 30 µM.
In the same order, the values of `Cc1cc(NC(=O)c2cc(C(=O)C(=O)N[C@H](CO)[C@@H](C)O)n3c2CCCC3)ccc1F` [Example 433, 3-(2-(((2R,3R)-1,3-dihydroxybutan-2-yl)amino)-2-oxoacetyl)-N-(4-fluoro-3-methylphenyl)-5,6,7,8-tetrahydroindolizine-1-carboxamide] are 0.5 to 1 µM and more than 30 µM.
For `Cc1noc([C@@H](C)NC(=O)C(=O)c2c(Cl)c(C(=O)Nc3ccnc(F)c3)c3n2CCCC3)n1` [Example 510, (R)-2-chloro-N-(2-fluoropyridin-4-yl)-3-(2-((1-(3-methyl-1,2,4-oxadiazol-5-yl)ethyl)amino)-2-oxoacetyl)-5,6,7,8-tetrahydroindolizine-1-carboxamide] the same measures were more than 1 µM and more than 30 µM.
As to `Cc1cc(NC(=O)c2c(C)c(C(=O)C(=O)NCCc3ccsc3)n(C)c2C)ccc1F` [Example 646, N-(4-fluoro-3-methylphenyl)-1,2,4-trimethyl-5-(2-oxo-2-((2-(thiophen-3-yl)ethyl)amino)acetyl)-1H-pyrrole-3-carboxamide], the EC50 in data set [1] was less than 0.05 µM. Also, the CC50 at 7 days in data set [2] is 5 to 30 µM.
In the same order, the values of `Cc1c(C(=O)Nc2cccc(C(F)F)c2)c(C)n(C)c1C(=O)C(=O)N[C@]1(C)CC[C@@H](O)CC1` [Example 700, N-(3-(difluoromethyl)phenyl)-5-(2-(((1r,4r)-4-hydroxy-1-methylcyclohexyl)amino)-2-oxoacetyl)-1,2,4-rimethyl-1H-pyrrole-3-carboxamide] are less than 0.05 µM and more than 30 µM.
In the same order, the values of `Cc1cc(NC(=O)c2c(C)c(C(=O)C(=O)N[C@@H](C(=O)O)C(C)C)n(C)c2C)ccc1F` [Example 101, (2-(4-((4-fluoro-3-methylphenyl)carbamoyl)-1,3,5-trimethyl-1H-pyrrol-2-yl)-2-oxoacetyl)-D-valine] are more than 1 µM and 5 to 30 µM.
`Cc1cc(NC(=O)c2c(C)c(C(=O)C(=O)N[C@]3(C)CC[C@H](O)CC3)n(C)c2C)ccc1F` [Example 228, N-(4-fluoro-3-methylphenyl)-5-(2-(((1s,4s)-4-hydroxy-1-methylcyclohexyl)amino)-2-oxoacetyl)-1,2,4-trimethyl-1H-pyrrole-3-carboxamide]: the EC50 in data set [1] was less than 0.05 µM. The molecule further yielded a CC50 at 7 days in data set [2] of more than 30 µM.
In the case of `Cc1cc(NC(=O)c2c(C)c(C(=O)C(=O)NC(C)(C)CO)n(CCF)c2C)cnc1F` [Example 222, N-(6-fluoro-5-methylpyridin-3-yl)-1-(2-fluoroethyl)-5-(2-((1-hydroxy-2-methylpropan-2-yl)amino)-2-oxoacetyl)-2,4-dimethyl-1H-pyrrole-3-carboxamide], the EC50 in data set [1] was more than 1 µM. In data set [2], the CC50 at 7 days was more than 30 µM.
On to `Cc1c(C(=O)Nc2ccc(F)c(F)c2)c(C)n(C)c1C(=O)C(=O)NC1CCC(F)(F)CC1` [Example 298, 5-(2-((4,4-difluorocyclohexyl)amino)-2-oxoacetyl)-N-(3,4-difluorophenyl)-1,2,4-trimethyl-1H-pyrrole-3-carboxamide], for which the EC50 in data set [1] was less than 0.05 µM. This molecule also had a CC50 at 7 days in data set [2] of more than 30 µM.
`Cc1cc(NC(=O)c2c(C)c(C(=O)C(=O)NC34CCC(O)(CC3)CC4)n(C)c2C)ccc1F` [Example 263, N-(4-fluoro-3-methylphenyl)-5-(2-((4-hydroxybicyclo[2.2.2]octan-1-yl)amino)-2-oxoacetyl)-1,2,4-trimethyl-1H-pyrrole-3-carboxamide]: in data set [1], the EC50 was less than 0.05 µM. The molecule further gave a 50% cytotoxic concentration (CC50) at 7 days in data set [2] of more than 30 µM.
In the same order, the values of `Cc1cc(NC(=O)c2c(C)c(C(=O)C(=O)N3CCC(O)C(C)(C)C3)n(C)c2C)ccc1F` (centres unmarked) [Example 53, N-(4-fluoro-3-methylphenyl)-5-(2-(4-hydroxy-3,3-dimethylpiperidin-1-yl)-2-oxoacetyl)-1,2,4-trimethyl-1H-pyrrole-3-carboxamide] are 0.05 to 0.499 µM and more than 30 µM.
`Cc1cc(NC(=O)c2c(C)c(C(=O)C(=O)NC(C)(C)C(F)(F)F)n(CCF)c2C)ccc1F` [Example 227, N-(4-fluoro-3-methylphenyl)-1-(2-fluoroethyl)-2,4-dimethyl-5-(2-oxo-2-((1,1,1-trifluoro-2-methylpropan-2-yl)amino)acetyl)-1H-pyrrole-3-carboxamide]: in data set [1], the EC50 is less than 0.05 µM. The half-maximal cytotoxic concentration (CC50) at 7 days in data set [2] was more than 30 µM.
For `Cc1cc(NC(=O)c2c(C)c(C(=O)C(=O)N[C@H]3C[C@H](O)C3)n3c2CCCC3)ccc1F` [Example 438, N-(4-fluoro-3-methylphenyl)-3-(2-(((1r,3r)-3-hydroxycyclobutyl)amino)-2-oxoacetyl)-2-methyl-5,6,7,8-tetrahydroindolizine-1-carboxamide] the same measures were 0.05 to 0.499 µM and more than 30 µM.
With `CC(C)(O)CNC(=O)C(=O)c1c(Cl)c(C(=O)Nc2ccc(F)c(F)c2)c2n1CCCC2` [Example 534, 2-chloro-N-(3,4-difluorophenyl)-3-(2-((2-hydroxy-2-methylpropyl)amino)-2-oxoacetyl)-5,6,7,8-tetrahydroindolizine--1 carboxamide], in data set [1], the EC50 lay within 0.05 to 0.499 µM. The cytotoxic concentration (CC50) at 7 days in data set [2] was in the range of 5 to 30 µM.
In the same order, the values of `CC(C)(O)CNC(=O)C(=O)c1c(Cl)c(C(=O)Nc2ccc(F)c(F)c2)c2n1CCC2` [Example 560, 6-chloro-N-(3,4-difluorophenyl)-5-(2-((2-hydroxy-2-methylpropyl)amino)-2-oxoacetyl)-2,3-dihydro-1H-pyrrolizine-7-carboxamide] are less than 0.05 µM and more than 30 µM.
In the case of `Cc1cc(NC(=O)c2c(Cl)c(C(=O)C(=O)NC3(CO)CC(F)(F)C3)n(C)c2C)ccc1F` [Example 366, 4-chloro-5-(2-((3,3-difluoro-1-(hydroxymethyl)cyclobutyl)amino)-2-oxoacetyl)-N-(4-fluoro-3-methylphenyl)-1,2-dimethyl-1H-pyrrole-3-carboxamide], in data set [1], the EC50 was less than 0.05 µM. In addition, in data set [2], the CC50 at 7 days was more than 30 µM.
For the molecule `Cc1cc(NC(=O)c2c(Cl)c(C(=O)C(=O)NC(C)(C)CO)n3c2CCC3)ccc1F` [Example 540, 6-chloro-N-(4-fluoro-3-methylphenyl)-5-(2-((1-hydroxy-2-methylpropan-2-yl)amino)-2-oxoacetyl)-2,3-dihydro-1H-pyrrolizine-7-carboxamide], the 50% effective concentration (EC50) in data set [1] is less than 0.05 µM. Also, the CC50 at 7 days in data set [2] was more than 30 µM.
In the same order, the values of `Cn1cc(C(=O)Nc2ccc(F)c(Cl)c2)cc1C(=O)C(=O)NOC(C)(C)C` [Example 21, 5-(2-(tert-butoxyamino)-2-oxoacetyl)-N-(3-chloro-4-fluorophenyl)-1-methyl-1H-pyrrole-3-carboxamide] are 0.05 to 0.499 µM and more than 30 µM.
As to `Cc1cc(NC(=O)c2c(C)c(C(=O)C(=O)NC3CCN(c4ccncc4)CC3)n(C)c2C)ccc1F` [Example 662, N-(4-fluoro-3-methylphenyl)-1,2,4-trimethyl-5-(2-oxo-2-((1-(pyridin-4-yl)piperidin-4-yl)amino)acetyl)-1H-pyrrole-3-carboxamide], in data set [1], the EC50 was less than 0.05 µM. The CC50 at 7 days in data set [2] was more than 30 µM.
In the same order, the values of `Cc1cc(NC(=O)c2c(C)c(C(=O)C(=O)Nc3ccccn3)n(C)c2C)ccc1F` [Example 276, N-(4-fluoro-3-methylphenyl)-1,2,4-trimethyl-5-(2-oxo-2-(pyridin-2-ylamino)acetyl)-1H-pyrrole-3-carboxamide] are less than 0.05 µM and more than 30 µM.
In the same order, the values of `Cc1c(C(=O)Nc2ccnc(Cl)c2)c(C)n(C)c1C(=O)C(=O)N[C@H]1CC[C@@H](O)CC1` [Example 252, N-(2-chloropyridin-4-yl)-5-(2-(((1s,4s)-4-hydroxycyclohexyl)amino)-2-oxoacetyl)-1,2,4-trimethyl-1H-pyrrole-3-carboxamide] are 0.05 to 0.499 µM and more than 30 µM.
